Experimental data: US11883419B2, “DNA polymerase gamma inhibitor and uses thereof” (ACIBADEM MEHMET ALI AYDINLAR UNIVERSITESI, priority 2018, dated 2024)

Tests used:
HCT116 xenograft = HCT116 xenograft study in nude mice; type: in vivo; details: all doses
Excerpt: Tumor volume (mm^3) vs days the graph is indicated in FIG. 6 (a), body weight vs days after injection graph is in FIG. 6 (b), and FIG. 6 (c) is HCT116 Control vs […] image.

Lovo xenograft = Lovo xenograft study in nude mice; type: in vivo
HCT116 (MLH1 deficient) = test: xCELLigence real time cell proliferation/cytotoxicity; details: read-out: IC50, cytotoxicity; HCT116, 5, 10, 20 μM, 72 h, RTCA software

**Q.** Which Tumor volume (HCT116 xenograft) does the source give for `Nc1c(/N=N/c2ccc(-c3ccc(/N=N/c4cc(S(=O)(=O)O)c5ccccc5c4N)cc3)cc2)cc(S(=O)(=O)O)c2ccccc12` [Formula II] here?
**A.** decreased tumor volume in all doses

**Q.** What about the Tumor growth (Lovo xenograft) of the same compound?
**A.** did not affect the tumor growth

**Q.** And the IC50 (HCT116 (MLH1 deficient))?
**A.** 5.19 µM
